{"source": "ChEMBL document CHEMBL3044672", "about": "“N9- and N7-(Chloromethyl Phenymethyl)Chloropurine Derivatives from , '-Dichloroxylenes: Synthesis and Anticancer Activity” (2005)", "type_in_all_cases": "functional", "key": {"UACC-62": {"test_system": "UACC-62", "experiment": "Cytotoxicity against Homo sapiens (human) UACC62 cells after 48 hr by sulforhodamine B assay", "settings": "UACC-62, 48 h"}, "BT-549": {"test_system": "BT-549", "experiment": "Cytotoxicity against Homo sapiens (human) BT549 cells after 48 hr by sulforhodamine B assay", "settings": "BT-549, 48 h"}, "K562": {"test_system": "K562", "experiment": "Cytotoxicity against Homo sapiens (human) K562 cells after 48 hr by sulforhodamine B assay", "settings": "K562, 48 h"}, "[1]": {"experiment": "Cytotoxicity against Homo sapiens (human) NCI-ADR-RES cells after 48 hr by sulforhodamine B assay"}, "SK-MEL-28": {"test_system": "SK-MEL-28", "experiment": "Cytotoxicity against Homo sapiens (human) SK-MEL-28 cells after 48 hr by sulforhodamine B assay", "settings": "SK-MEL-28, 48 h"}, "CCRF-CEM": {"test_system": "CCRF-CEM", "experiment": "Cytotoxicity against Homo sapiens (human) CCRF-CEM cells after 48 hr by sulforhodamine B assay"}, "UACC-257": {"test_system": "UACC-257", "experiment": "Cytotoxicity against Homo sapiens (human) UACC257 cells after 48 hr by sulforhodamine B assay", "settings": "UACC-257, 48 h"}, "M14": {"test_system": "M14", "experiment": "Cytotoxicity against Homo sapiens (human) M14 cells after 48 hr by sulforhodamine B assay", "settings": "M14, 48 h"}, "MCF7": {"test_system": "MCF7", "experiment": "Cytotoxicity against Homo sapiens (human) MCF7 cells assessed as cell growth at 10^-4 M after 48 hr by Alamar blue assay", "settings": "MCF7, 48 h, read-out: Activity"}, "SNB-19": {"test_system": "SNB-19", "experiment": "Cytotoxicity against Homo sapiens (human) SNB19 cells after 48 hr by sulforhodamine B assay", "settings": "SNB-19, 48 h"}, "ACHN": {"test_system": "ACHN", "experiment": "Cytotoxicity against Homo sapiens (human) ACHN cells after 48 hr by sulforhodamine B assay"}, "NCI-H460": {"test_system": "NCI-H460", "experiment": "Cytotoxicity against Homo sapiens (human) NCI-H460 cells assessed as cell growth at 10^-4 M after 48 hr by Alamar blue assay", "settings": "NCI-H460, 48 h, read-out: Activity"}, "U-251": {"test_system": "U-251", "experiment": "Cytotoxicity against Homo sapiens (human) U251 cells after 48 hr by sulforhodamine B assay", "settings": "U-251, 48 h"}, "A498": {"test_system": "A498", "experiment": "Cytotoxicity against Homo sapiens (human) A498 cells after 48 hr by sulforhodamine B assay", "settings": "A498, 48 h"}, "NCI-H23": {"test_system": "NCI-H23", "experiment": "Cytotoxicity against Homo sapiens (human) NCI-H23 cells after 48 hr by sulforhodamine B assay", "settings": "NCI-H23, 48 h"}, "NCI-H522": {"test_system": "NCI-H522", "experiment": "Cytotoxicity against Homo sapiens (human) NCI-H522 cells after 48 hr by sulforhodamine B assay", "settings": "NCI-H522, 48 h"}, "OVCAR-8": {"test_system": "OVCAR-8", "experiment": "Cytotoxicity against Homo sapiens (human) OVCAR8 cells after 48 hr by sulforhodamine B assay", "settings": "OVCAR-8, 48 h"}, "786-0": {"test_system": "786-0", "experiment": "Cytotoxicity against Homo sapiens (human) 786-0 cells after 48 hr by sulforhodamine B assay", "settings": "786-0, 48 h"}, "UO-31": {"test_system": "UO-31", "experiment": "Cytotoxicity against Homo sapiens (human) UO31 cells after 48 hr by sulforhodamine B assay", "settings": "UO-31, 48 h"}, "CAKI-1": {"test_system": "CAKI-1", "experiment": "Cytotoxicity against Homo sapiens (human) Caki1 cells after 48 hr by sulforhodamine B assay", "settings": "CAKI-1, 48 h"}, "SF-268": {"test_system": "SF-268", "experiment": "Cytotoxicity against Homo sapiens (human) SF268 cells after 48 hr by sulforhodamine B assay", "settings": "SF-268, 48 h"}, "A549": {"test_system": "A549", "experiment": "Cytotoxicity against Homo sapiens (human) A549 cells after 48 hr by sulforhodamine B assay", "settings": "A549, 48 h"}, "SN12C": {"test_system": "SN12C", "experiment": "Cytotoxicity against Homo sapiens (human) SN12C cells after 48 hr by sulforhodamine B assay"}, "HCT-15": {"test_system": "HCT-15", "experiment": "Cytotoxicity against Homo sapiens (human) HCT15 cells after 48 hr by sulforhodamine B assay", "settings": "HCT-15, 48 h"}, "SF-539": {"test_system": "SF-539", "experiment": "Cytotoxicity against Homo sapiens (human) SF539 cells after 48 hr by sulforhodamine B assay", "settings": "SF-539, 48 h"}, "LOX IMVI": {"test_system": "LOX IMVI", "experiment": "Cytotoxicity against Homo sapiens (human) LOXIMVI cells after 48 hr by sulforhodamine B assay"}, "NCI-H226": {"test_system": "NCI-H226", "experiment": "Cytotoxicity against Homo sapiens (human) NCI-H226 cells after 48 hr by sulforhodamine B assay", "settings": "NCI-H226, 48 h"}, "HOP-92": {"test_system": "HOP-92", "experiment": "Cytotoxicity against Homo sapiens (human) HOP92 cells after 48 hr by sulforhodamine B assay", "settings": "HOP-92, 48 h"}, "[2]": {"settings": "read-out: LC50 (the source's name)"}}}
{"molecule": "ClCc1cccc(Cn2cnc3nc(Cl)nc(Cl)c32)c1", "values": [{"measurement": "GI50", "setting": "UACC-62", "result": 1020, "unit": "nM"}, {"measurement": "LC50 (concentration causing 50% net cell kill)", "setting": "UACC-62", "result": 4670, "unit": "nM"}, {"measurement": "TGI", "setting": "UACC-62", "result": 2180, "unit": "nM"}, {"measurement": "GI50", "setting": "BT-549", "result": 480, "unit": "nM"}, {"measurement": "LC50 (50% lethal concentration)", "setting": "BT-549", "result": 4160, "unit": "nM"}, {"measurement": "TGI", "setting": "BT-549", "result": 1730, "unit": "nM"}, {"measurement": "GI50", "setting": "K562", "result": 1410, "unit": "nM"}, {"measurement": "TGI", "setting": "K562", "result": 2690, "unit": "nM"}, {"measurement": "CC50", "setting": "K562; [2]", "result": 5240, "unit": "nM"}, {"measurement": "GI50", "setting": "[1]", "result": 1540, "unit": "nM"}, {"measurement": "LC50 (concentration killing 50% of cells)", "setting": "[1]", "result": "> 100000", "unit": "nM"}, {"measurement": "TGI", "setting": "[1]", "result": 3090, "unit": "nM"}, {"measurement": "GI50", "setting": "SK-MEL-28", "result": 170, "unit": "nM"}, {"measurement": "LC50 (concentration killing 50% of cells)", "setting": "SK-MEL-28", "result": 970, "unit": "nM"}, {"measurement": "TGI", "setting": "SK-MEL-28", "result": 400, "unit": "nM"}, {"measurement": "GI50", "setting": "CCRF-CEM", "result": 1380, "unit": "nM"}, {"measurement": "TGI", "setting": "CCRF-CEM", "result": 2750, "unit": "nM"}, {"measurement": "CC50", "setting": "CCRF-CEM; [2]", "result": 5490, "unit": "nM"}, {"measurement": "GI50", "setting": "UACC-257", "result": 3460, "unit": "nM"}, {"measurement": "LC50 (concentration killing 50% of cells)", "setting": "UACC-257", "result": 38900, "unit": "nM"}, {"measurement": "TGI", "setting": "UACC-257", "result": 15100, "unit": "nM"}, {"measurement": "GI50", "setting": "M14", "result": 1380, "unit": "nM"}, {"measurement": "LC50", "setting": "M14", "result": 5120, "unit": "nM"}, {"measurement": "TGI", "setting": "M14", "result": 2630, "unit": "nM"}, {"measurement": "growth at 100 µM", "setting": "MCF7", "result": 0, "unit": "%"}, {"measurement": "GI50", "setting": "SNB-19", "result": 1380, "unit": "nM"}, {"measurement": "LC50", "setting": "SNB-19", "result": 5120, "unit": "nM"}, {"measurement": "TGI", "setting": "SNB-19", "result": 2690, "unit": "nM"}, {"measurement": "GI50", "setting": "ACHN", "result": 1120, "unit": "nM"}, {"measurement": "TGI", "setting": "ACHN", "result": 2340, "unit": "nM"}, {"measurement": "CC50", "setting": "ACHN; [2]", "result": 4780, "unit": "nM"}, {"measurement": "growth at 100 µM", "setting": "NCI-H460", "result": 0, "unit": "%"}, {"measurement": "GI50", "setting": "U-251", "result": 1380, "unit": "nM"}, {"measurement": "LC50 (concentration killing 50% of cells)", "setting": "U-251", "result": 5120, "unit": "nM"}, {"measurement": "TGI", "setting": "U-251", "result": 2690, "unit": "nM"}, {"measurement": "GI50", "setting": "A498", "result": 1510, "unit": "nM"}, {"measurement": "LC50 (lethal concentration, 50% cell kill)", "setting": "A498", "result": 5370, "unit": "nM"}, {"measurement": "TGI", "setting": "A498", "result": 2810, "unit": "nM"}, {"measurement": "GI50", "setting": "NCI-H23", "result": 1540, "unit": "nM"}, {"measurement": "TGI", "setting": "NCI-H23", "result": 30900, "unit": "nM"}, {"measurement": "CC50", "setting": "NCI-H23; [2]", "result": 5370, "unit": "nM"}, {"measurement": "GI50", "setting": "NCI-H522", "result": 1810, "unit": "nM"}, {"measurement": "TGI", "setting": "NCI-H522", "result": 3540, "unit": "nM"}, {"measurement": "CC50", "setting": "NCI-H522; [2]", "result": 6910, "unit": "nM"}, {"measurement": "GI50", "setting": "OVCAR-8", "result": 9330, "unit": "nM"}, {"measurement": "LC50 (concentration killing 50% of cells)", "setting": "OVCAR-8", "result": 45700, "unit": "nM"}, {"measurement": "TGI", "setting": "OVCAR-8", "result": 21400, "unit": "nM"}, {"measurement": "GI50", "setting": "786-0", "result": 1580, "unit": "nM"}, {"measurement": "LC50", "setting": "786-0", "result": 5370, "unit": "nM"}, {"measurement": "TGI", "setting": "786-0", "result": 2880, "unit": "nM"}, {"measurement": "GI50", "setting": "UO-31", "result": 17400, "unit": "nM"}, {"measurement": "LC50 (concentration causing 50% net cell kill)", "setting": "UO-31", "result": 72400, "unit": "nM"}, {"measurement": "TGI", "setting": "UO-31", "result": 35500, "unit": "nM"}, {"measurement": "GI50", "setting": "CAKI-1", "result": 1860, "unit": "nM"}, {"measurement": "TGI", "setting": "CAKI-1", "result": 3460, "unit": "nM"}, {"measurement": "GI50", "setting": "SF-268", "result": 2130, "unit": "nM"}, {"measurement": "TGI", "setting": "SF-268", "result": 3800, "unit": "nM"}, {"measurement": "GI50", "setting": "A549", "result": 12000, "unit": "nM"}, {"measurement": "TGI", "setting": "A549", "result": 25700, "unit": "nM"}, {"measurement": "CC50", "setting": "A549; [2]", "result": 55000, "unit": "nM"}, {"measurement": "GI50", "setting": "SN12C", "result": 1440, "unit": "nM"}, {"measurement": "TGI", "setting": "SN12C", "result": 2750, "unit": "nM"}, {"measurement": "GI50", "setting": "HCT-15", "result": 950, "unit": "nM"}, {"measurement": "TGI", "setting": "HCT-15", "result": 2130, "unit": "nM"}, {"measurement": "CC50", "setting": "HCT-15; [2]", "result": 4570, "unit": "nM"}, {"measurement": "GI50", "setting": "SF-539", "result": 160, "unit": "nM"}, {"measurement": "LC50 (concentration killing 50% of cells)", "setting": "SF-539", "result": 1620, "unit": "nM"}, {"measurement": "TGI", "setting": "SF-539", "result": 460, "unit": "nM"}, {"measurement": "GI50", "setting": "LOX IMVI", "result": 230, "unit": "nM"}, {"measurement": "TGI", "setting": "LOX IMVI", "result": 790, "unit": "nM"}, {"measurement": "GI50", "setting": "NCI-H226", "result": 1280, "unit": "nM"}, {"measurement": "TGI", "setting": "NCI-H226", "result": 3630, "unit": "nM"}, {"measurement": "CC50", "setting": "NCI-H226; [2]", "result": 20000, "unit": "nM"}, {"measurement": "GI50", "setting": "HOP-92", "result": 1470, "unit": "nM"}, {"measurement": "TGI", "setting": "HOP-92", "result": 2750, "unit": "nM"}, {"measurement": "CC50", "setting": "HOP-92; [2]", "result": 5240, "unit": "nM"}]}
